Experimental data: patent publication US5719151A, “Substituted benzene compounds” (priority 1990, dated 1998)
Where two headings read alike, the source gives them in different places.

Legend:
[1] = target: poly(ADP-ribose)polymerase (Homo sapiens, UniProt P09874); assay: Determination of inhibitory effect on poly(ADP-ribose)polymerase (enzyme activity, Ki, Km); assay type: biochemical
Protocol: The enzyme activity was assayed by standard procedures (Murray, B. et al., Mutation Research (1986) 165:191-198). This reference also describes the estimation of the Km (Michaelis Constant) values. The estimation of the Ki (inhibitory constant) values was performed by calculating the Km value in the presence or absence of known concentrations of the enzyme inhibitor. Standard biochemical calculations were then used to calculate the Ki value. The smaller K1 values indicate stronger inhibition. The degree of enzyme inhibition shown in the Table was estimated by measuring the enzyme activity in the presence and absence of the indicated concentrations of inhibitor.

[2] = system: Trypanosoma brucei rhodesiense; assay: Growth of Trypanosoma brucei rhodesiense in axenic culture (growth inhibition); assay type: cell-based
Protocol: (§1) 1. TRYPANOSOMES: Stabilates of two clones, GUP 2889 and GUP 2814 were used.
Prior to propagation in vitro cell free culture conditions the parasites from stabilates were expanded in CD1 (8-9 week old) female mice. Infected mouse blood obtained by cardiac puncture in EMEM* with 20 U/ml heparin was used for the preparation of blood smears for immunofluorescence analysis.
(§2) Antibody mediated lysis of a specific VAT of bloodstream form trypanosomes was performed by incubating an appropriate aliquot of a recently prepared trypanosome suspension at room temperature for 1 hour, in appropriately diluted specific antibody and guinea pig complement. The trypanosomes were observed and counted with inverted phase-contrast microscopy at a magnification of 150× to check for viability and to observe lysed trypanosomes, which appeared stumpy and vacuolated.
(§3) Cultures were initiated with aliquots of the above prepared trypanosome suspension. Duplicate T25 flasks, with 10 ml of medium were prepared for each experimental parameter examined. In each experiment the trypanosome density was determined at the initiation of the culture and at the end of the axenic culture period (usually after 18-24 hours) using a Neubaurer haemocytometer.
(§4) The instantaneous rate of switching/cell/generation, σi, has been calculated. These values of σ are estimates of the per capita rate for switching to minor VATs. However, these estimates have been made in populations manipulated to consist of a major VAT, the prevalence of which is much higher than that of minor VATs; switching from minor to major VATs has therefore been assumed to be negligible, as has interswitching between minor VATs. Growth rates, r, have been expressed as population doubling times Td, where Td=loge2/r. Switching rates values are presented in the tables as finite, of, rate estimates.
Two clones of Trypanosoma brucei rhodesiense, GUP 2889 and […] were initiated in culture with viable trypanosomes after in vitro trypanolysis of heterotype VAT 1.22 with GUPM 27.1 monoclonal antibody. Viable populations of these trypanosomes were incubated with various concentrations of the poly(ADP-Ribose)polymerase inhibitors. The effect of each concentration of inhibitor was tested in duplicate in T25 culture flasks set up for the axenic culture inhibition experiments. Growth was monitored after 24 hours of incubation at 37° C. in 4-5% CO2 in air. Relative growth inhibition and frequency of antigenic switching of were calculated.
In this assay a continuously growing bloodstream form trypanosome population was incubated in serial inhibitor dilutions in T25 culture flasks using an inoculum of 2×10^4 ·1×10^5 trypanosomes per ml. After an incubation period of 24-48 hours in axenic culture at 37° C. in a 4-5% CO2 incubator, trypanosomes were counted using a haemocytometer and growth inhibition was determined based on the number of generations (kt) of inhibitor treated cultures compared to controls. […] Growth is reduced by up to 17% when 3-N-formylluminol(3-N-FL) is present in the concentration range of 50-400 μM, Table 7.

[3] = system: Trypanosoma brucei rhodesiense (GUP 2814); assay: Antigenic switching in Trypanosoma brucei rhodesiense (GUP 2814) in axenic culture, ILTat 1.63 to ILTat 1.22; assay type: cell-based
Protocol: as §1
Specific rabbit antisera and ascites fluid against specific Variable Antigen Types were used for trypanolysis and immunofluorescence at the appropriate dilutions.
as §2, §3
The prevalences of VATs in each cultures population were determined using immunofluorescence as follows: contents of one of the duplicate flasks (or both) were transferred to a universal bottle, and the trypanosomes were sedimented by centrifugation at 3,000 rpm at room temperature in a bench-top MSE centrifuge. The trypanosomes were resuspended in 10 μl of 20%(v/v) FCS supplemented EMEM* medium. Samples of this suspension were applied as smears to clean microscope slides coated with 0.1% poly-L-Lysine for immunofluorescence (IF) analysis for the frequency of specific VATs. Prevalence estimates of VATs were based on counts of more than 1000 labeled trypanosomes per flask.
Indirect immunofluorescence on acetone-fixed trypanosomes on slides was performed essentially according to the method of van Meirvenne et al., (Ann. Soc. Belge Med. Trop. (1975) 55: 1-23), using appropriately diluted rabbit antiserum or undiluted monoclonal lantibodies derived from hybridoma culture supernatants. Trypanosomes were visualized with fluorescein isothiocyanate(FITC)-labeled conjugated anti rabbit-FITC antibodies (Sigma:No.F-0382) for VAT 1.22 and 1.3, and with anti-mouse-FITC (Sigma:No.F-0257) for VATs 1.64c, 1.63a and 1.61. These secondary antibodies were diluted in PBS (pH8.0) and also contained Evans Blue (1:10,000 w/v) and Ethidium Bromide (5 μg/ml) as a counterstain.
Estimates of the prevalence of particular trypanosome VATs were based on counts of at least 200 trypanosomes, and at least 1000 trypanosomes were counted if the frequency of positive organisms were very low.
The rate of switching was estimated essentially as described by Turner and Barry (Parasitology (1989) 99: 67-75). Briefly, the size of the trypanosome population expressing aminor VAT was calculated at the time points […] as Nt1 and Nt2 respectively, from the mean total population density and from the prevalence of that VAT in the population.
as §4
Two clones of Trypanosoma brucei rhodesiense, GUP 2889 and […] were initiated in culture with viable trypanosomes after in vitro trypanolysis of heterotype VAT 1.22 with GUPM 27.1 monoclonal antibody. Viable populations of these trypanosomes were incubated with various concentrations of the poly(ADP-Ribose)polymerase inhibitors. […]

poly(ADP-ribose)polymerase, sequence (P09874 whole entry): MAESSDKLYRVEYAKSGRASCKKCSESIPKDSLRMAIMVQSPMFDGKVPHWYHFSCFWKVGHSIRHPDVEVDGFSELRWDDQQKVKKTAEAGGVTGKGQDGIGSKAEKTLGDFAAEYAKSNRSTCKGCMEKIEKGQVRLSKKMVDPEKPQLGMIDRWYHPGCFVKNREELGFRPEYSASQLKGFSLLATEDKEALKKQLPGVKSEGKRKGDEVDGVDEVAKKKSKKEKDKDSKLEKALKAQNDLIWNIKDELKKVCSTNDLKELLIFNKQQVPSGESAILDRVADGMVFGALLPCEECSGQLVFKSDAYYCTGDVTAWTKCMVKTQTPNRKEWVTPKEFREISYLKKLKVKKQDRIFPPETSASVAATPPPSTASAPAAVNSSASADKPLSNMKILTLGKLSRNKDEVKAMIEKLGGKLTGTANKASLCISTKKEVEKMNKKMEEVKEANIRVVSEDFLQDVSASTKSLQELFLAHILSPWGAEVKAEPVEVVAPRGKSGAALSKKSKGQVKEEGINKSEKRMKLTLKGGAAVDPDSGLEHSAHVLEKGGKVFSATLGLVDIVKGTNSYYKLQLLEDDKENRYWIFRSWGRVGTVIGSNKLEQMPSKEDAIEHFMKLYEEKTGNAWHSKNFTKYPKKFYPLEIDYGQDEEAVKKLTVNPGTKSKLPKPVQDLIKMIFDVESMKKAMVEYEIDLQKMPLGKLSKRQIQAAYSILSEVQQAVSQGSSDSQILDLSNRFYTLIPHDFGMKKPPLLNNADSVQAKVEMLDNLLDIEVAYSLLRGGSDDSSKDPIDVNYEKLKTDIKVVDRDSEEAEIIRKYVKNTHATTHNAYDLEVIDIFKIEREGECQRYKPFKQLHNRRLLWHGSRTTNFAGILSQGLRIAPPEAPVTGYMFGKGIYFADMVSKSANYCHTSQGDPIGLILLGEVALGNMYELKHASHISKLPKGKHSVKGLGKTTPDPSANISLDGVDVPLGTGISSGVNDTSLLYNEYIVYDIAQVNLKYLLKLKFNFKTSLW

Compound: NC(=O)c1cccc(NC=O)c1 [Compound 1, 3-formylaminobenzamide]
- inhibition at 5 µM ([1]; 5.0 μM, read-out: Inhibitor Activity (%)): 66%
- Ki ([1]; poly(ADP-ribose)polymerase, read-out: Ki (Inhibition Constant)): 1610 ± 150 nM
- reduction in growth rate ([2]; 0.5 to 2.0 mM): 7%
- kt (generation number) ([2]; GUP 2814, DHS/EMEM, 1.0 mM, control 2.44): 2.29 doublings
- kt (generation number) ([2]; GUP 2814, ES/EMEM (first experiment), 1.0 mM, control 2.02): 1.56 doublings
- kt (generation number) ([2]; GUP 2814, ES/EMEM (second experiment), 1.0 mM, control 2.36): 2.14 doublings
- kt (generation number) ([2]; GUP 2814, ES/EMEM, 0.5 mM, control 1.95): 2.09 doublings
- kt (generation number) ([2]; GUP 2814, FCS/EMEM, 1.0 mM, control 2.143): 1.92 doublings
- activity at 500 µM ([2]; Trypanosoma brucei, RHODESIENSE, 0.5 mM, n = 6, control 1.00, read-out: Relative Growth Rate (S.D., n)): 105 ± 13%
- activity at 1000 µM ([2]; Trypanosoma brucei, RHODESIENSE, 1.0 mM, n = 11, control 1.00, read-out: Relative Growth Rate (S.D., n)): 103 ± 23%
- activity at 2000 µM ([2]; Trypanosoma brucei, RHODESIENSE, 2.0 mM, n = 6, control 1.00, read-out: Relative Growth Rate (S.D., n)): 93 ± 22%
- activity at 1000 µM ([2]; Trypanosoma brucei, RHODESIENSE, GUP 2814, DHS/EMEM, 1.0 mM, control 100, read-out: Relative Growth): 93.9%
- activity at 1000 µM ([2]; Trypanosoma brucei, RHODESIENSE, GUP 2814, ES/EMEM (first experiment), 1.0 mM, control 100, read-out: Relative Growth): 77.2%
- activity at 1000 µM ([2]; Trypanosoma brucei, RHODESIENSE, GUP 2814, ES/EMEM (second experiment), 1.0 mM, control 100, read-out: Relative Growth): 90.8%
- activity at 500 µM ([2]; Trypanosoma brucei, RHODESIENSE, GUP 2814, ES/EMEM, 0.5 mM, control 100, read-out: Relative Growth): 107%
- activity at 1000 µM ([2]; Trypanosoma brucei, RHODESIENSE, GUP 2814, FCS/EMEM, 1.0 mM, control 100, read-out: Relative Growth): 89.6%
- switching frequency, from ILTat 1.63 to 1.22 ([3]; 1 mM, Horse Serum (Bristol), two of three experiments): reproducible reduction of switching frequency
- σf (finite switch rate per trypanosome per generation) ([3]; DHS/EMEM, 1.0 mM, control 210.8): 117.0 x10^-2
- σf (finite switch rate per trypanosome per generation) ([3]; ES/EMEM (first experiment), 1.0 mM, control 5.3): 2.26 x10^-2
- σf (finite switch rate per trypanosome per generation) ([3]; ES/EMEM (second experiment), 1.0 mM, control 2.17): 0.94 x10^-2
- σf (finite switch rate per trypanosome per generation) ([3]; ES/EMEM, 0.5 mM, control 13.65): 0.95 x10^-2
- σf (finite switch rate per trypanosome per generation) ([3]; FCS/EMEM, 1.0 mM, control 0.46): 0.72 x10^-2
- activity at 1000 µM ([3]; Trypanosoma brucei, RHODESIENSE, read-out: RAS (relative antigenic switching), DHS/EMEM, 1.0 mM, control 100): 55.5%
- activity at 1000 µM ([3]; Trypanosoma brucei, RHODESIENSE, read-out: RAS (relative antigenic switching), ES/EMEM (first experiment), 1.0 mM, control 100): 42.6%
- activity at 1000 µM ([3]; Trypanosoma brucei, RHODESIENSE, read-out: RAS (relative antigenic switching), ES/EMEM (second experiment), 1.0 mM, control 100): 43.5%
- activity at 500 µM ([3]; Trypanosoma brucei, RHODESIENSE, read-out: RAS (relative antigenic switching), ES/EMEM, 0.5 mM, control 100): 7%
- activity at 1000 µM ([3]; Trypanosoma brucei, RHODESIENSE, read-out: RAS (relative antigenic switching), FCS/EMEM, 1.0 mM, control 100): 136%
